“Also recorded” adds a separate entry of the source.

For the first test, the system named is human melanoma. Put plainly: effect on growth of human melanoma (time course, apoptosis). Format: cell-based.
Conditions: not given
For `CC(C)CCC[C@@H](C)[C@H]1CC[C@H]2[C@@H]3CC[C@H]4C[C@@H](NCCCNCCCCNCCCN)CC[C@]4(C)[C@H]3CC[C@]12C` [Compound 353], the “mechanism of cell death” value was “apoptotic cell death has been induced”.

The test is the same for the next values; noted with them: FIG. 17A.
With `CC(C)CCC[C@@H](C)[C@H]1CC[C@H]2[C@@H]3CC[C@H]4C[C@@H](NCCCNCCCCNCCCN)CC[C@]4(C)[C@H]3CC[C@]12C` [Compound 353], the “time dependence of effect on growth of melanoma” value is given as “most pronounced over 48 hours”.

Another test concerns vitelline capillaries of chick embryo. Briefly: chick embryo vitelline capillary regression assay. Format: in vivo. Further details: key to vitelline capillary regression: +: Vascular reactivity; 0: No vascular reactivity; +/-: Equivocal reactivity. Particulars: 0.1 μg applied; 60 min. Here is the method:
Using the chick embryo vitelline capillaries assay, compounds were tested for their ability to induce capillary regression. Each compound was applied in 0.1 ml of 15% Ficol 400 and PBS onto the embryo, and vascular regression was assessed after 60 minutes.
The 3-day chick embryo consists of an embryonic disc from which numerous vessels emerge and return, forming a "figure 8"-shaped structure--the embryo in the center with vascular loops extending outward over both poles. […] Following a lag period of around 15 minutes, the constriction of continuity between capillary and secondary vessels, generally on the "venous" side, was observed. Continued pulsatile blood flow progressed, resulting in a "swelling" of the blind tube, followed by a pinching off of the remaining connection and formation of an enclosed vascular sac resembling a "blood island." This process progressed until only the largest vessels remained intact.
Consider `COC(=O)CC[C@@H](C)[C@H]1CC[C@H]2[C@@H]3[C@H](O)C[C@@H]4C[C@@H](NCCCNCCCCNCCCN)CC[C@]4(C)[C@H]3CC[C@]12C` [Compound 411], for which the vitelline capillary regression is on record as 0.

Staying with this test, now noted: Table II.
On to `CC(C)CCCC(C)[C@H]1CCC2C3CC[C@H]4C[C@@H](NCCCNCCCCN)CC[C@]4(C)C3CC[C@@]21C` (stereo partly shown), for which the “Chick embryo diss. assay, Minimum Effective Concentration” value (shortened to “Chick embryo diss. assay”) is over 10 µg. Regarding `CC(CCC(=O)O)[C@H]1CCC2C3CC[C@H]4C[C@H](NCCCNCCCCN)CC[C@]4(C)C3CC[C@@]21C` (stereo partly shown), the “Chick embryo diss. assay” value was over 10 µg. For `CC(CCC(=O)O)[C@H]1CCC2C3CC[C@H]4C[C@@H](NCCCNCCCCN)CC[C@]4(C)C3CC[C@@]21C` (stereo partly shown), the “Chick embryo diss. assay” value worked out at 0.001 µg.

On to `CC(C)CCCC(C)[C@H]1CCC2C3C(CC[C@@]21C)[C@@]1(C)CC[C@@H](NCCCNCCCCN)C[C@@H]1C[C@H]3O` (stereo partly shown), for which the “Chick embryo diss. assay” value is over 10 µg. On the same count and under the same terms, with `CC(C)CCCC(C)[C@H]1CCC2C3C(CC[C@@]21C)[C@@]1(C)CC[C@H](NCCCNCCCCN)C[C@@H]1C[C@H]3O` (stereo partly shown) the figure was 1 to 10 µg.

Consider `COC(=O)CCC(C)[C@H]1CCC2C3C(CC[C@@]21C)[C@@]1(C)CC[C@H](NCCCNCCCCNCCCN)C[C@@H]1C[C@H]3O` (stereo partly shown), for which the “Chick embryo diss. assay” value was found to be 10 µg. On the same count and under the same terms, with `CC(CCC(=O)O)[C@H]1CCC2C3C(CC[C@@]21C)[C@@]1(C)CC[C@H](NCCCNCCCCNCCCN)C[C@@H]1C[C@H]3O` (stereo partly shown) the figure was 1 µg; with `COC(=O)CCC(C)[C@H]1CCC2C3C(CC[C@@]21C)[C@@]1(C)CC[C@H](NCCN)C[C@H]1C[C@H]3O` (stereo partly shown), over 1 µg. Still for that read-out and setting: as for `COC(=O)CCC(C)[C@H]1CCC2C3C(CC[C@@]21C)[C@@]1(C)CC[C@@H](NCCN)C[C@H]1C[C@H]3O` (stereo partly shown), the figure is 0.01 µg; as for `CC(CCC(=O)O)[C@H]1CCC2C3C(CC[C@@]21C)[C@@]1(C)CC[C@H](NCCCNCCCCN)C[C@@H]1C[C@H]3O` (stereo partly shown), over 10 µg. Consider `CC(C)CCCC(C)[C@H]1CCC2C3CC[C@H]4C[C@H](NCCCN5CCCCN=C5N)CC[C@]4(C)C3CC[C@@]21C` (stereo partly shown), for which the “Chick embryo diss. assay” value was over 10 µg. Turning to `COC(=O)CCC(C)[C@H]1CCC2C3CC[C@H]4C[C@@H](NCCCNCCCCNCCCN)CC[C@]4(C)C3CC[C@@]21C` (stereo partly shown), the “Chick embryo diss. assay” value is over 1 µg.

As to `COC(=O)CCC(C)[C@H]1CCC2C3C[C@@H](O)[C@H]4C[C@@H](NCCCNCCCCNCCCN)CC[C@]4(C)C3CC[C@@]21C` (stereo partly shown), the “Chick embryo diss. assay” value was determined as 1 µg. Same read-out and setting: with `COC(=O)CCC(C)[C@H]1CCC2C3C[C@@H](O)[C@H]4C[C@H](NCCN)CC[C@]4(C)C3CC[C@@]21C` (stereo partly shown) the figure was over 1 µg; with `COC(=O)CCC(C)[C@H]1CCC2C3C[C@@H](O)[C@H]4C[C@@H](NCCN)CC[C@]4(C)C3CC[C@@]21C` (stereo partly shown), over 1 µg; with `CC(CCC(=O)O)[C@H]1CCC2C3C[C@@H](O)[C@H]4C[C@@H](NCCN)CC[C@]4(C)C3CC[C@@]21C` (stereo partly shown), 1 µg. On the same count and under the same terms, with `COC(=O)CCC(C)[C@H]1CCC2C3CC[C@@H]4C[C@H](NCCCNCCCCNCCCN)CC[C@]4(C)C3CC[C@@]21C` (stereo partly shown) the figure was over 1 µg; with `COC(=O)CCC(C)[C@H]1CCC2C3C(CC[C@@]21C)[C@@]1(C)CC[C@H](NCCCNCCCCNCCCN)C[C@H]1C[C@H]3O` (stereo partly shown), over 1 µg. Take `CC(CCC(=O)O)[C@H]1CCC2C3C(CC[C@@]21C)[C@@]1(C)CC[C@@H](NCCCNCCCCNCCCN)C[C@H]1C[C@H]3O` (stereo partly shown): the “Chick embryo diss. assay” value worked out at 1 µg. In the case of `CC(CCC(=O)O)[C@H]1CCC2C3C(CC[C@@]21C)[C@@]1(C)CC[C@H](NCCCNCCCCNCCCN)C[C@H]1C[C@H]3O` (stereo partly shown), the “Chick embryo diss. assay” value was over 1 µg. Still for that read-out and setting: with `CC(CCC(=O)O)[C@H]1CCC2C3C(CC[C@@]21C)[C@@]1(C)CC[C@@H](NCCN)C[C@H]1C[C@H]3O` (stereo partly shown) the figure was over 1 µg.

Regarding `CC(CCC(=O)O)[C@H]1CCC2C3C(CC[C@@]21C)[C@@]1(C)CC[C@H](NCCN)C[C@H]1C[C@H]3O` (stereo partly shown), the “Chick embryo diss. assay” value is over 1 µg. Same read-out and setting: as for `COC(=O)CCC(C)[C@H]1CCC2C3CC[C@@H]4C[C@H](NCCN)CC[C@]4(C)C3C[C@H](O)[C@@]21C` (stereo partly shown), the figure is over 1 µg; as for `CC(COS(=O)(=O)O)C(=O)CCC(C)[C@H]1CCC2C3C(CC[C@@]21C)[C@@]1(C)CC[C@H](NCCCNCCCCN)C[C@@H]1C[C@H]3O` (stereo partly shown), over 10 µg.

Staying with this test, now noted: in vivo.
In the case of `CC(COS(=O)(=O)O)C(=O)CC[C@@H](C)[C@H]1CC[C@H]2[C@@H]3[C@H](O)C[C@H]4C[C@@H](NCCCNCCCCN)CC[C@]4(C)[C@H]3CC[C@]12C` (single isomer, unassigned) [Compound 1360], the “effect on vitelline capillaries / chick embryo” value was “the blood circulating through the embryonic vessels exhibited a brighter red color”. On to `CC(C)CCC[C@@H](C)[C@H]1CC[C@H]2[C@@H]3CC[C@H]4C[C@@H](NCCCNCCCCNCCCN)CC[C@]4(C)[C@H]3CC[C@]12C` [Compound 353], for which the “effect on vitelline capillaries / chick embryo” value was “no effect on the chick embryo capillary bed”. Same read-out and setting: as for `C[C@H](CCC(=O)O)[C@H]1CC[C@H]2[C@@H]3[C@H](O)C[C@@H]4C[C@@H](NCCN)CC[C@]4(C)[C@H]3CC[C@]12C` [Compound 415], the entry is “especially active”.

Another test relates to NHE3.
Assay: not given
Particulars: cited from earlier work.
Turning to `N=C(N)NC(=O)c1nc(Cl)c(N)nc1N` [Amiloride, amiloride], the “effect on NHE3 kinetics (Km, Vmax)” value is listed as “affected only Vmax”.

The next test deals with Xenopus tadpole (stage 59-60). Briefly: Xenopus tadpole assay. Format: in vivo, Xenopus laevis. Particulars: 10 μg/ml; about 1 hour.
Regarding `CC(COS(=O)(=O)O)C(=O)CC[C@@H](C)[C@H]1CC[C@H]2[C@@H]3[C@H](O)C[C@H]4C[C@@H](NCCCNCCCCN)CC[C@]4(C)[C@H]3CC[C@]12C` (single isomer, unassigned) [Compound 1360], the “tadpole response” value was “Swelling and lysis of certain erythrocytes occurred; also recorded: extensive vasocclusion occurred within 60 minutes throughout the tail”.

Still in this test, the particulars now being: in vivo.
Take `C[C@H](CCC(=O)O)[C@H]1CC[C@H]2[C@@H]3[C@H](O)C[C@@H]4C[C@H](NCCN)CC[C@]4(C)[C@H]3CC[C@]12C` [Compound 414]: the “pharmacologic similarity in tadpole assay” value is reported as “pharmacologic activity similar to Fraction 1”. As for `CC(C)CCC[C@@H](C)[C@H]1CC[C@H]2[C@@H]3[C@H](O)C[C@H]4C[C@H](N)CC[C@]4(C)[C@H]3CC[C@]12C` [Compound 1363], the “pharmacologic similarity in tadpole assay” value is “pharmacologic activity similar to Fraction 1”.

Source of the values: patent publication US5874597A, “Certain aminosterol compounds and pharmaceutical compositions including these compounds” (priority 1995, dated 1999).
